Test results as given in the CheMixHub viscosity set.
Where “and” joins values, the source holds several entries; their conditions need not be identical. Equal entries are not always repeated.

Assay: xn = mol fraction of the nth substance listed

CC#N + CO
Settings	viscosity
298.15 K, 101 kPa, x1 = 0.0892	0.478 mPa·s
298.15 K, 101 kPa, x1 = 0.1871	0.431 mPa·s
298.15 K, 101 kPa, x1 = 0.2884	0.397 mPa·s
298.15 K, 101 kPa, x1 = 0.4054	0.365 mPa·s
298.15 K, 101 kPa, x1 = 0.4849	0.351 mPa·s
298.15 K, 101 kPa, x1 = 0.5981	0.339 mPa·s
298.15 K, 101 kPa, x1 = 0.6986	0.331 mPa·s
298.15 K, 101 kPa, x1 = 0.8078	0.327 mPa·s
298.15 K, 101 kPa, x1 = 0.9013	0.329 mPa·s
298.15 K, 101 kPa, x2 = 0.1219	0.331 mPa·s
298.15 K, 101 kPa, x2 = 0.178	0.334 mPa·s
298.15 K, 101 kPa, x2 = 0.2	0.334 mPa·s
298.15 K, 101 kPa, x2 = 0.216	0.329 mPa·s and 0.333 mPa·s
298.15 K, 101 kPa, x2 = 0.3487	0.334 mPa·s
298.15 K, 101 kPa, x2 = 0.378	0.342 mPa·s
298.15 K, 101 kPa, x2 = 0.394	0.343 mPa·s
298.15 K, 101 kPa, x2 = 0.4	0.343 mPa·s
298.15 K, 101 kPa, x2 = 0.412	0.345 mPa·s
298.15 K, 101 kPa, x2 = 0.577	0.369 mPa·s
298.15 K, 101 kPa, x2 = 0.6	0.373 mPa·s
298.15 K, 101 kPa, x2 = 0.6804	0.339 mPa·s
298.15 K, 101 kPa, x2 = 0.711	0.402 mPa·s
298.15 K, 101 kPa, x2 = 0.743	0.419 mPa·s
298.15 K, 101 kPa, x2 = 0.8	0.435 mPa·s
298.15 K, 101 kPa, x2 = 0.86	0.459 mPa·s
298.15 K, 101 kPa, x2 = 0.881	0.469 mPa·s
298.15 K, 101 kPa, x2 = 0.887	0.472 mPa·s
298.15 K, 101 kPa, x2 = 0.9	0.48 mPa·s
298.15 K, 101.33 kPa, x1 = 0.0495	0.509 mPa·s
298.15 K, 101.33 kPa, x1 = 0.0999	0.479 mPa·s
298.15 K, 101.33 kPa, x1 = 0.1494	0.455 mPa·s
298.15 K, 101.33 kPa, x1 = 0.1995	0.434 mPa·s
298.15 K, 101.33 kPa, x1 = 0.245	0.418 mPa·s
298.15 K, 101.33 kPa, x1 = 0.2998	0.4 mPa·s
298.15 K, 101.33 kPa, x1 = 0.3451	0.387 mPa·s
298.15 K, 101.33 kPa, x1 = 0.3997	0.374 mPa·s
298.15 K, 101.33 kPa, x1 = 0.4489	0.364 mPa·s
298.15 K, 101.33 kPa, x1 = 0.495	0.357 mPa·s
298.15 K, 101.33 kPa, x1 = 0.5496	0.349 mPa·s
298.15 K, 101.33 kPa, x1 = 0.5999	0.343 mPa·s
298.15 K, 101.33 kPa, x1 = 0.6494	0.34 mPa·s
298.15 K, 101.33 kPa, x1 = 0.6997	0.336 mPa·s
298.15 K, 101.33 kPa, x1 = 0.745	0.334 mPa·s
298.15 K, 101.33 kPa, x1 = 0.7995	0.333 mPa·s
298.15 K, 101.33 kPa, x1 = 0.8496	0.335 mPa·s
298.15 K, 101.33 kPa, x1 = 0.8998	0.338 mPa·s
298.15 K, 101.33 kPa, x1 = 0.95	0.34 mPa·s
303 K, 100 kPa, x1 = 0.0991	0.4985 mPa·s
303 K, 100 kPa, x1 = 0.2043	0.4812 mPa·s
303 K, 100 kPa, x1 = 0.316	0.4588 mPa·s
303 K, 100 kPa, x1 = 0.4039	0.4395 mPa·s
303 K, 100 kPa, x1 = 0.5003	0.4202 mPa·s
303 K, 100 kPa, x1 = 0.6063	0.4016 mPa·s
303 K, 100 kPa, x1 = 0.7402	0.3785 mPa·s
303 K, 100 kPa, x1 = 0.8688	0.3645 mPa·s
303.15 K, 101 kPa, x1 = 0.0892	0.423 mPa·s
303.15 K, 101 kPa, x1 = 0.1871	0.385 mPa·s
303.15 K, 101 kPa, x1 = 0.2884	0.357 mPa·s
303.15 K, 101 kPa, x1 = 0.4054	0.327 mPa·s
303.15 K, 101 kPa, x1 = 0.4849	0.317 mPa·s
303.15 K, 101 kPa, x1 = 0.5981	0.308 mPa·s
303.15 K, 101 kPa, x1 = 0.6986	0.302 mPa·s
303.15 K, 101 kPa, x1 = 0.8078	0.299 mPa·s
303.15 K, 101 kPa, x1 = 0.8746	0.514 mPa·s
303.15 K, 101 kPa, x1 = 0.9013	0.304 mPa·s
308 K, 100 kPa, x1 = 0.0991	0.4521 mPa·s
308 K, 100 kPa, x1 = 0.2043	0.4145 mPa·s
308 K, 100 kPa, x1 = 0.316	0.3945 mPa·s
308 K, 100 kPa, x1 = 0.4039	0.3815 mPa·s
308 K, 100 kPa, x1 = 0.5003	0.3712 mPa·s
308 K, 100 kPa, x1 = 0.6063	0.3621 mPa·s
308 K, 100 kPa, x1 = 0.7402	0.3502 mPa·s
308 K, 100 kPa, x1 = 0.8688	0.3423 mPa·s
308.15 K, 101 kPa, x1 = 0.0892	0.376 mPa·s
308.15 K, 101 kPa, x1 = 0.1871	0.346 mPa·s
308.15 K, 101 kPa, x1 = 0.2884	0.321 mPa·s
308.15 K, 101 kPa, x1 = 0.4054	0.298 mPa·s
308.15 K, 101 kPa, x1 = 0.4849	0.291 mPa·s
308.15 K, 101 kPa, x1 = 0.5981	0.282 mPa·s
308.15 K, 101 kPa, x1 = 0.6986	0.278 mPa·s
308.15 K, 101 kPa, x1 = 0.8078	0.276 mPa·s
308.15 K, 101 kPa, x1 = 0.9013	0.28 mPa·s
308.15 K, 101.33 kPa, x1 = 0.0495	0.451 mPa·s
308.15 K, 101.33 kPa, x1 = 0.0999	0.436 mPa·s
308.15 K, 101.33 kPa, x1 = 0.1494	0.412 mPa·s
308.15 K, 101.33 kPa, x1 = 0.1995	0.395 mPa·s
308.15 K, 101.33 kPa, x1 = 0.245	0.38 mPa·s
308.15 K, 101.33 kPa, x1 = 0.2998	0.364 mPa·s
308.15 K, 101.33 kPa, x1 = 0.3451	0.352 mPa·s
308.15 K, 101.33 kPa, x1 = 0.3997	0.341 mPa·s
308.15 K, 101.33 kPa, x1 = 0.4489	0.333 mPa·s
308.15 K, 101.33 kPa, x1 = 0.495	0.326 mPa·s
308.15 K, 101.33 kPa, x1 = 0.5496	0.32 mPa·s
308.15 K, 101.33 kPa, x1 = 0.5999	0.314 mPa·s
308.15 K, 101.33 kPa, x1 = 0.6494	0.31 mPa·s
308.15 K, 101.33 kPa, x1 = 0.6997	0.307 mPa·s
308.15 K, 101.33 kPa, x1 = 0.745	0.305 mPa·s
308.15 K, 101.33 kPa, x1 = 0.7995	0.305 mPa·s
308.15 K, 101.33 kPa, x1 = 0.8496	0.306 mPa·s
308.15 K, 101.33 kPa, x1 = 0.8998	0.307 mPa·s
308.15 K, 101.33 kPa, x1 = 0.95	0.309 mPa·s
313 K, 100 kPa, x1 = 0.0991	0.4125 mPa·s
313 K, 100 kPa, x1 = 0.2043	0.3956 mPa·s
313 K, 100 kPa, x1 = 0.316	0.3838 mPa·s
313 K, 100 kPa, x1 = 0.4039	0.3736 mPa·s
313 K, 100 kPa, x1 = 0.5003	0.3612 mPa·s
313 K, 100 kPa, x1 = 0.6063	0.3512 mPa·s
313 K, 100 kPa, x1 = 0.7402	0.3375 mPa·s
313 K, 100 kPa, x1 = 0.8688	0.3215 mPa·s
318.15 K, 101.33 kPa, x1 = 0.0495	0.403 mPa·s
318.15 K, 101.33 kPa, x1 = 0.0999	0.39 mPa·s
318.15 K, 101.33 kPa, x1 = 0.1494	0.376 mPa·s
318.15 K, 101.33 kPa, x1 = 0.1995	0.361 mPa·s
318.15 K, 101.33 kPa, x1 = 0.245	0.347 mPa·s
318.15 K, 101.33 kPa, x1 = 0.2998	0.333 mPa·s
318.15 K, 101.33 kPa, x1 = 0.3451	0.323 mPa·s
318.15 K, 101.33 kPa, x1 = 0.3997	0.313 mPa·s
318.15 K, 101.33 kPa, x1 = 0.4489	0.306 mPa·s
318.15 K, 101.33 kPa, x1 = 0.495	0.3 mPa·s
